Like-named read-outs stand apart in the source and are kept apart here.
Tests used:
[1] = elimination of GA metabolites in SD rats intravenously injected with GA; type: in vivo, Sprague-Dawley (SD) rats; settings: female SD rats, GA iv, faeces collected 24 h after injection
Text: (§1) Briefly, after diluting serum and urine samples with water to obtain suitable concentrations, they were digested with subtilisin (0.91 U/ml), followed by the addition of astragaloside IV (used as an internal standard; Fujifilm Wako Pure Chemicals, Osaka, Japan), and deproteinized using 80% ethanol. […] The transitions (precursor to daughter) monitored and retention times were as follows: ESI(+), 743.4 to 567.5 m/z (35 and 25 V for cone voltage and collision energy, respectively) for compound 1 (8.1 min); ESI(–), 565.5 to 96.5 m/z (80 and 60 V) for 2 (9.6 min); ESI(–), 549.5 to 96.5 m/z (80 and 60 V) for 3 (15.4 min); ESI(+), 727.3 to 551.2 m/z (30 and 25 V) for 4 (11.3 min); ESI(+), 647.6 to 453.6 m/z (40 and 20 V) for 3MGA (15.0 min); ESI(+), 471.3 to 91.0 m/z (40 and 20 V) for GA (13.4 min); ESI(+), 823.5 to 453.6 m/z (30 and 20 V) for GL (18.4 min); and ESI(+), 785.4 to 143.0 m/z (30 and 20 V) for astragaloside IV (3.0 min). Linear regressions over the concentration range of 2 nM to 2 µM for each compound were examined using the peak-area ratio of the compounds to their internal standards and the least-squares method (r ^ 2 > 0.98). The detection limits for 1, GL, and GA were 6.4 nM, and those for 2, 3, and 4, and 3MGA were 3.2 nM.
FIGURE 6 Elimination of glycyrrhizin (GL) metabolites into bile in Sprague-Dawley (SD) rats. Female SD rats (10 week-old) were anesthetized using intraperitoneal injection of urethane (1 g/kg), and biliary tracts were cannulated. […] Concentrations of GA metabolites were measured using liquid chromatography-tandem mass spectrometry (LC-MS/MS) and accumulated elimination of GA-metabolites are means ± standard error (S.E: n = 3).

[2] = pharmacokinetics of GA metabolites in EHBRs orally treated with GA; type: in vivo, Eisai hyperbilirubinuria rats (EHBRs); settings: for concentration at 12 h: Eisai hyperbilirubinuria rat (EHBR), rat, plasma, 200 mg/kg, GA 0.20 g/kg oral, read-out: plasma concentration 12 h after oral administration of GA
Description: Pharmacokinetic Experiments of GA Metabolites in EHBRs Orally Treated With GA
Male and female EHBRs (9 week-old) were anaesthetized by an intraperitoneal injection of urethane (1 g/kg) and their jugular veins were exposed. GA suspended in 0.5% carboxymethylcellulose was then administered orally (200 mg/kg) to the unconscious rats, and blood samples were collected from the jugular vein while urine samples were collected using a metabolic cage at appropriate times over a 12 h period.
LC-MS/MS Analysis for GA Metabolites
as §1
FIGURE 5 Pharmacokinetic profiles of glycyrrhizin (GL) metabolites in female (A–C) and male (D–F) Eisai hyperbilirubinuria rats (EHBRs). […] Data of GA, 3MGA, 1, 2, and 3 in (A) and GA, 3MGA, 2, and 3 for (D) are relatively small; their magnified graphs are shown in (B,E), respectively. Concentrations of GA metabolites were measured using liquid chromatography-tandem mass spectrometry (LC-MS/MS), and data are means ± standard error (S.E: n = 4).

[3] = test system: mineralocorticoid receptor (MR); parameters: method as in earlier work; settings: ref Ulmann et al., 1975; Armanini et al., 1983; Monder et al., 1989; cited from earlier work
[4] = parameters: method as in Takahashi et al., 2019; settings: ref Takahashi et al., 2019, cited from earlier work
anti-3MGA-mAb = assay: competitive ELISA using anti-3MGA-mAb; type: binding; settings: competitive ELISA in aqueous solution, 3MGA calibrated to 100%
Description: ELISA System Using anti-3MGA-mAb
An ELISA system to measure the cross-reactivity of compounds 3 and 4 by using 3MGA-HSA-conjugate and anti-3MGA-mAb was used according to the protocol in our previous study ([Ishiuchi et al., 2019]). To measure the concentration of 3 in human serum samples using the system ELISA, 3 was dissolved in normal human serum (Sigma) to prepare standard solutions (16 nM–2.0 µM) and the samples or standard solutions (each 10 µl) and ethanol (40 µl) were well mixed and centrifuged (1.2 × 10^4 × g for 7 min). The supernatant was dried up under nitrogen flow at 40°C overnight, and the residue was dissolved in Can Get Signal® Solution 1 (Toyobo Co., Ltd: Osaka, Japan) (50 µl). […] When the observed values were more than 400 nM, the deproteinized serum samples were further diluted with Can Get Signal® Solution 1 for two or four times and analyzed again to observe values from 15.6 to 400 nM.
FIGURE 4 Development of enzyme-linked immunosorbent assay (ELISA) system to measure concentrations of 3 in human serum samples using anti-18β-glycyrrhetyl-3-O-glucuronide (3MGA)-monoclonal antibody (mAb). […] Standard lines between absorbance and concentrations of compound 3 are shown (D) Accuracy of ELISA system in measuring concentrations of 3 in human serum samples using anti-3MGA-mAb. Human serum samples were deproteinized, and concentration of 3 was measured using ELISA system. […]

SMILES	accumulative elimination in faeces [1]	concentration at 12 h ([2]; female EHBRs)	concentration at 12 h ([2]; male EHBRs)	blood concentration in male rats relative to female rats ([2]; EHBRs, 12 h after oral GA)	binding activity (ED50) on mineralocorticoid receptor [3]	serum concentration of 3 relative to that of GA (fold higher) ([4]; human serum)	maximum serum concentration ([4]; previous clinical study)	cross-reactivity to anti-3MGA-mAb (anti-3MGA-mAb)
CC1(C)[C@@H](O)CC[C@]2(C)[C@H]3C(=O)C=C4[C@@H]5C[C@@](C)(C(=O)O)CC[C@]5(C)CC[C@@]4(C)[C@]3(C)CC[C@@H]12 [GA, glycyrrhetinic acid, reference compound]	9.8 ± 1.3 nmol	2700 nM	2600 nM		about 100 µM			
CC1(C)[C@@H](OS(=O)(=O)O)CC[C@]2(C)[C@H]3C(=O)C=C4[C@@H]5C[C@@](C)(C(=O)O[C@@H]6O[C@H](C(=O)O)[C@@H](O)[C@H](O)[C@H]6O)C[C@H](O)[C@]5(C)CC[C@@]4(C)[C@]3(C)CC[C@@H]12 [Compound 1, 22α-hydroxy-18β-glycyrrhetyl-3-O-sulfate-30-glucuronide]	below detectable levels	32000 nM	177000 nM	approximately 7 fold				
CC1(C)[C@@H](OS(=O)(=O)O)CC[C@]2(C)[C@H]3C(=O)C=C4[C@@H]5C[C@@](C)(C(=O)O)CC[C@]5(C)CC[C@@]4(C)[C@]3(C)CC[C@@H]12 [Compound 3, 18β-glycyrrhetyl-3-O-sulfate]	1.8 ± 0.3 nmol	2000 nM	2200 nM			1.5–2 fold	4.2 µM	23%

Further lines, with some results ahead:

accumulative elimination in faeces [1]	concentration at 12 h ([2]; female EHBRs)	concentration at 12 h ([2]; male EHBRs)	blood concentration in male rats relative to female rats ([2]; EHBRs, 12 h after oral GA)	SMILES	binding activity (ED50) on mineralocorticoid receptor [3]	serum concentration of 3 relative to that of GA (fold higher) ([4]; human serum)	maximum serum concentration ([4]; previous clinical study)	cross-reactivity to anti-3MGA-mAb (anti-3MGA-mAb)
0.86 ± 0.1 nmol	10000 nM	8200 nM		CC1(C)[C@@H](OS(=O)(=O)O)CC[C@]2(C)[C@H]3C(=O)C=C4[C@@H]5C[C@@](C)(C(=O)O)C[C@H](O)[C@]5(C)CC[C@@]4(C)[C@]3(C)CC[C@@H]12 [Compound 2, 22α-hydroxy-18β-glycyrrhetyl-3-O-sulfate]				
below detectable levels				CC1(C)[C@@H](O[C@H]2O[C@H](C(=O)O)[C@@H](O)[C@H](O)[C@H]2O[C@@H]2O[C@H](C(=O)O)[C@@H](O)[C@H](O)[C@H]2O)CC[C@]2(C)[C@H]3C(=O)C=C4[C@@H]5C[C@@](C)(C(=O)O)CC[C@]5(C)CC[C@@]4(C)[C@]3(C)CC[C@@H]12 [GL, glycyrrhizin]				
below detectable levels	100 nM	1600 nM		CC1(C)[C@@H](O[C@@H]2O[C@H](C(=O)O)[C@@H](O)[C@H](O)[C@H]2O)CC[C@]2(C)[C@H]3C(=O)C=C4[C@@H]5C[C@@](C)(C(=O)O)CC[C@]5(C)CC[C@@]4(C)[C@]3(C)CC[C@@H]12 [Compound 3MGA, 18β-glycyrrhetyl-3-O-glucuronide, reference compound]				

— PMC8165744, “Identification of an Alternative Glycyrrhizin Metabolite Causing Liquorice-Induced Pseudohyperaldosteronism and the Development of ELISA System to Detect the Predictive Biomarker” (Frontiers in Pharmacology, 2021)
